Data published in the NIST ThermoML archive (doi:10.1016/j.jct.2016.07.005).
± gives the expanded uncertainty stated by the source.

Assay: xn = mol fraction of the nth substance listed
Conditions: 100 kPa, Liquid; for viscosity: Concentric cylinders viscometry; for mass density: Vibrating tube method

CN1CCC[C@H]1c1cccnc1 [(-)-3-(N-methylpyrrolidino)pyridine] + CC(O)CO
Conditions	mass density [kg/m3]	viscosity [mPa·s]
293.15 K, x1 = 0.1	1035.04 ± 1	59.35 ± 1.2
293.15 K, x1 = 0.2009	1033.1 ± 1	53.52 ± 1.1
293.15 K, x1 = 0.3	1030.49 ± 1	44.85 ± 0.92
293.15 K, x1 = 0.4016	1027.64 ± 1	35.02 ± 0.72
293.15 K, x1 = 0.5	1024.73 ± 1	26.04 ± 0.54
293.15 K, x1 = 0.6005	1021.54 ± 1	18.44 ± 0.38
293.15 K, x1 = 0.7	1018.73 ± 1	12.89 ± 0.27
293.15 K, x1 = 0.7983	1015.98 ± 1	9.269 ± 0.19
293.15 K, x1 = 0.9	1012.96 ± 1	6.875 ± 0.14
293.15 K, x1 = 1	1010.23 ± 1	4.694 ± 0.098
298.15 K, x1 = 0.1	1031.1 ± 1	43.28 ± 0.89
298.15 K, x1 = 0.2009	1029.06 ± 1	38.88 ± 0.8
298.15 K, x1 = 0.3	1026.32 ± 1	32.72 ± 0.67
298.15 K, x1 = 0.4016	1023.44 ± 1	25.84 ± 0.53
298.15 K, x1 = 0.5	1020.54 ± 1	19.6 ± 0.4
298.15 K, x1 = 0.6005	1017.36 ± 1	14.25 ± 0.29
298.15 K, x1 = 0.7	1014.59 ± 1	10.27 ± 0.21
298.15 K, x1 = 0.7983	1011.83 ± 1	7.576 ± 0.16
298.15 K, x1 = 0.9	1008.87 ± 1	5.707 ± 0.12
298.15 K, x1 = 1	1006.16 ± 1	4.048 ± 0.085
303.15 K, x1 = 0.1	1027.18 ± 1	32.21 ± 0.66
303.15 K, x1 = 0.2009	1025 ± 1	28.85 ± 0.59
303.15 K, x1 = 0.3	1022.19 ± 1	24.37 ± 0.5
303.15 K, x1 = 0.4016	1019.27 ± 1	19.44 ± 0.4
303.15 K, x1 = 0.5	1016.35 ± 1	14.99 ± 0.31
303.15 K, x1 = 0.6005	1013.17 ± 1	11.16 ± 0.23
303.15 K, x1 = 0.7	1010.42 ± 1	8.284 ± 0.17
303.15 K, x1 = 0.7983	1007.68 ± 1	6.286 ± 0.13
303.15 K, x1 = 0.9	1004.77 ± 1	4.834 ± 0.1
303.15 K, x1 = 1	1002.1 ± 1	3.518 ± 0.074
308.15 K, x1 = 0.1	1023.28 ± 1	24.46 ± 0.5
308.15 K, x1 = 0.2009	1020.91 ± 1	21.87 ± 0.45
308.15 K, x1 = 0.3	1018.08 ± 1	18.56 ± 0.38
308.15 K, x1 = 0.4016	1015.09 ± 1	14.98 ± 0.31
308.15 K, x1 = 0.5	1012.14 ± 1	11.73 ± 0.24
308.15 K, x1 = 0.6005	1008.98 ± 1	8.935 ± 0.18
308.15 K, x1 = 0.7	1006.13 ± 1	6.791 ± 0.14
308.15 K, x1 = 0.7983	1003.54 ± 1	5.264 ± 0.11
308.15 K, x1 = 0.9	1000.64 ± 1	4.12 ± 0.086
308.15 K, x1 = 1	998.055 ± 1	3.088 ± 0.065
313.15 K, x1 = 0.1	1019.3 ± 1	18.79 ± 0.38
313.15 K, x1 = 0.2009	1016.8 ± 1	16.79 ± 0.34
313.15 K, x1 = 0.3	1013.89 ± 1	14.33 ± 0.29
313.15 K, x1 = 0.4016	1010.88 ± 1	11.69 ± 0.24
313.15 K, x1 = 0.5	1007.92 ± 1	9.302 ± 0.19
313.15 K, x1 = 0.6005	1004.79 ± 1	7.224 ± 0.15
313.15 K, x1 = 0.7	1002.03 ± 1	5.605 ± 0.12
313.15 K, x1 = 0.7983	999.39 ± 1	4.425 ± 0.092
313.15 K, x1 = 0.9	996.55 ± 1	3.532 ± 0.074
313.15 K, x1 = 1	994.014 ± 1	2.758 ± 0.058
318.15 K, x1 = 0.1	1015.29 ± 1	14.91 ± 0.3
318.15 K, x1 = 0.2009	1012.66 ± 1	13.34 ± 0.27
318.15 K, x1 = 0.3	1009.7 ± 1	11.45 ± 0.23
318.15 K, x1 = 0.4016	1006.65 ± 1	9.438 ± 0.19
318.15 K, x1 = 0.5	1003.69 ± 1	7.62 ± 0.16
318.15 K, x1 = 0.6005	1000.58 ± 1	6.031 ± 0.12
318.15 K, x1 = 0.7	997.85 ± 1	4.779 ± 0.099
318.15 K, x1 = 0.7983	995.25 ± 1	3.839 ± 0.08
318.15 K, x1 = 0.9	992.46 ± 1	3.094 ± 0.065
318.15 K, x1 = 1	989.984 ± 1	2.411 ± 0.051
323.15 K, x1 = 0.1	1011.25 ± 1	12.03 ± 0.25
323.15 K, x1 = 0.2009	1008.51 ± 1	10.78 ± 0.22
323.15 K, x1 = 0.3	1005.48 ± 1	9.306 ± 0.19
323.15 K, x1 = 0.4016	1002.41 ± 1	7.746 ± 0.16
323.15 K, x1 = 0.5	999.45 ± 1	6.339 ± 0.13
323.15 K, x1 = 0.6005	996.37 ± 1	5.104 ± 0.11
323.15 K, x1 = 0.7	993.67 ± 1	4.124 ± 0.086
323.15 K, x1 = 0.7983	991.1 ± 1	3.375 ± 0.07
323.15 K, x1 = 0.9	988.38 ± 1	2.765 ± 0.058
323.15 K, x1 = 1	985.962 ± 1	2.195 ± 0.046
